Experiments:
ABL1 [1] = target: T1, ABL1 (Homo sapiens, UniProt P00519); assay: Kinobeads two-dose competition binding: ABL1; conditions: sheet CATDS matrix 2; Gene Name ABL1
ACOX1 = target: T2, ACOX1 (Homo sapiens, UniProt Q15067); assay: Kinobeads two-dose competition binding: ACOX1; conditions: for CATDS: sheet CATDS matrix 2, Gene Name ACOX1;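 on all read-outs here: competition of compounds with immobilized broad-spectrum kinase inhibitor beads in cell lysate at 100 and 1,000 nM, 45 min at 4 °C, bead-bound protein quantified by label-free MS versus DMSO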
T2 construct: endogenous in cells
T2 sequence (Q15067 1-660): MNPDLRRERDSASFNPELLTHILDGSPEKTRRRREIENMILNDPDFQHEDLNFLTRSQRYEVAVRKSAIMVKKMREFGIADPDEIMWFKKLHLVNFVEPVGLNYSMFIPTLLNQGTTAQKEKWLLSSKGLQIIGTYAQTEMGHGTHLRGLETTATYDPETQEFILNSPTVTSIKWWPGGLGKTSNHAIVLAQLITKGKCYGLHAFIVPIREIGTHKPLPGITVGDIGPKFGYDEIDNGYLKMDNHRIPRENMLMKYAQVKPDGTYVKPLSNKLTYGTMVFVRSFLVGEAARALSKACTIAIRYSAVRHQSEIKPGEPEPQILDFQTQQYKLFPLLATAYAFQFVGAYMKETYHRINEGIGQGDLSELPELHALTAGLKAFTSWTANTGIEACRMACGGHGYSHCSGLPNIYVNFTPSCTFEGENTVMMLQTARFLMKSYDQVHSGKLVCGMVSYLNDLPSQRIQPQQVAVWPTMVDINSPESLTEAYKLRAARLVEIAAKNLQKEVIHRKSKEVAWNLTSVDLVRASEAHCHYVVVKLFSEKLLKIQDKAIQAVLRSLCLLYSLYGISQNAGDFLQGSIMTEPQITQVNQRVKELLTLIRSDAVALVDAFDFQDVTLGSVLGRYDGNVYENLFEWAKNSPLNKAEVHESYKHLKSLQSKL

ABL2 [2] = target: T3, ABL2 (Homo sapiens, UniProt P42684); assay: Kinobeads two-dose competition binding: ABL2; conditions: sheet CATDS matrix 2; Gene Name ABL2
T3 construct: endogenous in cells
T3 sequence (P42684 whole entry): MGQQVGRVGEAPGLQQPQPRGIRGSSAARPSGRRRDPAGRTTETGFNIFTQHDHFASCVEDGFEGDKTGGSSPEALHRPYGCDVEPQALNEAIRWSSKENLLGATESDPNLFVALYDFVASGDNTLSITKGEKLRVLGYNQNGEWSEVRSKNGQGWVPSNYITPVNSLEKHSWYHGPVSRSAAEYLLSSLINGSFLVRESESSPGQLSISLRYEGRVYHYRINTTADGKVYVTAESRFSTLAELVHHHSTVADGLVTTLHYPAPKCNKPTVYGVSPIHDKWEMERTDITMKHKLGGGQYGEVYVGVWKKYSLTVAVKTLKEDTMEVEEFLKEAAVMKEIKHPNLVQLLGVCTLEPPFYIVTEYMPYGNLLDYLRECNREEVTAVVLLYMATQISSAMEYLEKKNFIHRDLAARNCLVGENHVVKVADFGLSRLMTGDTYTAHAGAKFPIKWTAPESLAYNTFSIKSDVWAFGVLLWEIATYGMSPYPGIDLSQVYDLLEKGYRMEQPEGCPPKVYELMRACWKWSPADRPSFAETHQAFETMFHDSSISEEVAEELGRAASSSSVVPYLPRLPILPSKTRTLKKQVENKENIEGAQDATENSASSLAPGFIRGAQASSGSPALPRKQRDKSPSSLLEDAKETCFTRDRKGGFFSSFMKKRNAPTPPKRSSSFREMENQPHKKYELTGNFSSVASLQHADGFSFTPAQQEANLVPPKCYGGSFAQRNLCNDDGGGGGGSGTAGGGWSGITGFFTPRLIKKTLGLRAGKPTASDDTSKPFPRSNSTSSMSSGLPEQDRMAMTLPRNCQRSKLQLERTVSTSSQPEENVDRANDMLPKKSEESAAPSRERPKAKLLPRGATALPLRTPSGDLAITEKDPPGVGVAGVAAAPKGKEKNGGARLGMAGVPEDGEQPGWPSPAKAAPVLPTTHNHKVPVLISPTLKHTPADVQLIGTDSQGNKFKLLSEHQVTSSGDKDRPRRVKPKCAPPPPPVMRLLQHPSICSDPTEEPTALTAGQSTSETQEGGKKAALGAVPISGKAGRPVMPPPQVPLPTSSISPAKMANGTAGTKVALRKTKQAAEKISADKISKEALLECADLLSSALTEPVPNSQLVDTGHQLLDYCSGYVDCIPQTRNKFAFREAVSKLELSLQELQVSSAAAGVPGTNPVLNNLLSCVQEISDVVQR

ABCD3 = target: T4, ABCD3 (Homo sapiens, UniProt P28288); assay: Kinobeads two-dose competition binding: ABCD3; conditions: sheet "Kinobeads Drugmatrix - all"; unit inferred; read-out: Kinobeads Drugmatrix - all: apparent Kd, ABCD3
T4 construct: endogenous in cells
T4 sequence (P28288 1-659): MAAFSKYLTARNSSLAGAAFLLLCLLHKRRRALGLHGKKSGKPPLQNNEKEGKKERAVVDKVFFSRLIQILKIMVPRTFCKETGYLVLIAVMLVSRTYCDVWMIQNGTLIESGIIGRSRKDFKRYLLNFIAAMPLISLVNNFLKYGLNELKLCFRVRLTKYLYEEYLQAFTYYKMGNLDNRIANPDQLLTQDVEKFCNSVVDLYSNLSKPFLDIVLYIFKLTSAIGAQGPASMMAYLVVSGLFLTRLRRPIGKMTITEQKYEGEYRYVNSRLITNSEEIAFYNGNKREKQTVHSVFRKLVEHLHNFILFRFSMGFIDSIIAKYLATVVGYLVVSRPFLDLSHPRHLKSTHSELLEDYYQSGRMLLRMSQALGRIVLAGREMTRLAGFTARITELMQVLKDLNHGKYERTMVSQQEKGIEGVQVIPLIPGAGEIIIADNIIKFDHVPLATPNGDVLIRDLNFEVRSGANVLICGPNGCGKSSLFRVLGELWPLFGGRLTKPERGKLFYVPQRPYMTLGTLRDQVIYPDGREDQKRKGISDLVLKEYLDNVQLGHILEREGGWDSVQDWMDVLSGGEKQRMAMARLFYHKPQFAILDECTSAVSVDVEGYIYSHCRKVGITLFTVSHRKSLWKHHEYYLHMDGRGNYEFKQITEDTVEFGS

ACAD11 [3] = target: T5, ACAD11 (Homo sapiens, UniProt Q709F0); assay: Kinobeads two-dose competition binding: ACAD11; conditions: sheet CATDS matrix 2; Gene Name ACAD11
T5 construct: endogenous in cells
T5 sequence (Q709F0 1-780): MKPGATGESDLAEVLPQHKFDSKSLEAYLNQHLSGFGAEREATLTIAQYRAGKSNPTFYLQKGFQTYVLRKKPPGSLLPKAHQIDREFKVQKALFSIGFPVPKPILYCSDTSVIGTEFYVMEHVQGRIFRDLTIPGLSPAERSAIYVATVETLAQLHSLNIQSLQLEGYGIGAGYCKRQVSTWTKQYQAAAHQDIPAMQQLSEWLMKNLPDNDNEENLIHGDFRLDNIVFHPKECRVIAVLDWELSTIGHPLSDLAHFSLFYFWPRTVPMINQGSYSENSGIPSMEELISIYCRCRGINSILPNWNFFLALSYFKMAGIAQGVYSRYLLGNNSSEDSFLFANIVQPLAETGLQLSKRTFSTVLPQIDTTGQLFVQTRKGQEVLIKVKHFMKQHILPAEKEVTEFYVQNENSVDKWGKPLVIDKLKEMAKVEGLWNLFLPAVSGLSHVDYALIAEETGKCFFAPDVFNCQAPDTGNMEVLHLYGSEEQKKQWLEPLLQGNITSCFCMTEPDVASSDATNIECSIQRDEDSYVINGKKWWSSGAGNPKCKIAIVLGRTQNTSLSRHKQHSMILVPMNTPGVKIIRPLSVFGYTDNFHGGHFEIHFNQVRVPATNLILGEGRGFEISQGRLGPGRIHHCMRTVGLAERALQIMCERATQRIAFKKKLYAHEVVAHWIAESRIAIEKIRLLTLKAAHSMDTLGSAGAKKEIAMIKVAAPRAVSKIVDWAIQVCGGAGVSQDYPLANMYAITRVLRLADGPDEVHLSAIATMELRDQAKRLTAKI

AAK1 = target: T6, AAK1 (Homo sapiens, UniProt Q2M2I8); assay: Kinobeads two-dose competition binding: AAK1; conditions: for CATDS: sheet CATDS matrix 2, Gene Name AAK1; for potency estimated from few doses: sheet "Kinobeads Drugmatrix - all", unit inferred, same values below 1000 recur in sheet "nanomolar", read-out: Kinobeads Drugmatrix - all: apparent Kd, AAK1;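 on all read-outs here: kinobeads competition pulldown from cell lysate, compound preincubated 45 min at 4 °C, bead-bound protein measured by label-free mass spectrometry against DMSO vehicle control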
T6 construct: to maximize the representation of endogenous proteins; endogenous in cells
T6 sequence (Q2M2I8 whole entry): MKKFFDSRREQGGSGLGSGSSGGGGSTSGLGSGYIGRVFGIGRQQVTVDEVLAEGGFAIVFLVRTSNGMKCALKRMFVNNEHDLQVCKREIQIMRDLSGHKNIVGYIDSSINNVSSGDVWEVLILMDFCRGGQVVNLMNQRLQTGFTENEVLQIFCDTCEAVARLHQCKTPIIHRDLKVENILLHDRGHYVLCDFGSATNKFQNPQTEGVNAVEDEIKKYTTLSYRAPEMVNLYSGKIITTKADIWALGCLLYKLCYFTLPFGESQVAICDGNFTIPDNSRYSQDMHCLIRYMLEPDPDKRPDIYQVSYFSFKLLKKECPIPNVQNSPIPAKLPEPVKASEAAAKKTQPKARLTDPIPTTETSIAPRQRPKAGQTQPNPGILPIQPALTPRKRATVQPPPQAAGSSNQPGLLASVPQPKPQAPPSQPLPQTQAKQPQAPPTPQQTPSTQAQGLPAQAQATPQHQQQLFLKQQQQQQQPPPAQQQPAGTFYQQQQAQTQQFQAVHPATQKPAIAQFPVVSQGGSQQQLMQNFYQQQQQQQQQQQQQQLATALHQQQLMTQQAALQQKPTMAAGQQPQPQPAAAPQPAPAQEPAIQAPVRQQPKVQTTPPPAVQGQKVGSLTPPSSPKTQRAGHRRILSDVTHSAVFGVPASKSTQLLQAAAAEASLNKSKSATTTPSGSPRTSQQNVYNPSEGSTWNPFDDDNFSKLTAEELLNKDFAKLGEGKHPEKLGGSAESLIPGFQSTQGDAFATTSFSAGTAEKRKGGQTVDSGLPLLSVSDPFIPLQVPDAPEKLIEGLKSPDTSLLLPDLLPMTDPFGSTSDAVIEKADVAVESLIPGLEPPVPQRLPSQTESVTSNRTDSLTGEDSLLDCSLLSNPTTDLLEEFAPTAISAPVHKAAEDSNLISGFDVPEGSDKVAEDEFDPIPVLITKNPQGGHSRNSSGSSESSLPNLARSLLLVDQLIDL

ACAD11 [4] = target: T5, ACAD11; assay: Kinobeads two-dose competition binding: ACAD11; conditions: sheet "Kinobeads Drugmatrix - all"; unit inferred; read-out: Kinobeads Drugmatrix - all: apparent Kd, ACAD11
[5] = test system: IL-10 secretion in primary bone marrow-derived dendritic cells (BMDCs); assay: IL-10 cytokine secretion assay (ELISA) in Zymosan-stimulated primary BMDCs; assay type: cell-based, mouse; conditions: murine BMDCs, inhibitor 30 min before Zymosan stimulation
Procedure: A subsequent full dose–response experiment confirmed potent and selective binding to SYK ( Kdapp = 58 nM, […] = 0.60; Extended Data Fig. 5a,b). […] One of the effects of Zymosan is that it activates Dectin-1 signaling, in turn activating SYK and leading to increased IL-10 cytokine production (Fig. 3c)[34]. Treatment of cells with the respective SYK inhibitors before Zymosan stimulation indeed led to decreased levels of IL-10 in a dose-dependent fashion (Fig. 3d). […] In line with the cytokine readout, we observed a dose depended reduction of pTyr525/526 indicating SYK inhibition in live cells (Fig. 3e and Extended Data Fig. 5c).
Primary BMDCs were obtained from 9-week-old C57BL/6 mice that were maintained under standard specific pathogen-free conditions. BMDCs were differentiated for 7 days in Roswell Park Memorial Institute medium (Gibco) and granulocyte-macrophage colony-stimulating factor. On day seven, BMDCs were seeded in 96-well plates at 10^5 cells per well in 100 µl of culture medium followed by incubation for 4 h at 37 °C. Subsequently, cells were incubated with SYK inhibitors for 30 min followed by stimulation with Zymosan (final concentration of 50 µg ml^−1; Invivogen) and dispersed in culture medium for 24 h. […] For cytokine secretion quantification, cell culture medium was collected and concentrations of IL-10 in the supernatant were determined using mouse enzyme-linked immunosorbent assay kits (IL-10: Invitrogen) according to the manufacturer’s protocol. Experiments were performed in biological triplicates.

PRKCA = target: T7, PRKCA (Homo sapiens, UniProt P17252); assay: Kinobeads full dose-response competition binding: PRKCA; conditions: Gene Name PRKCA, doses in nM
T7 construct: endogenous in cells

PAK4 = target: T8, PAK4 (Homo sapiens, UniProt O96013); assay: Kinobeads full dose-response competition binding: PAK4; conditions: Gene Name PAK4, doses in nM
T8 construct: a mixture of lysates from five cancer cell lines; endogenous in cells
T8 sequence (O96013 whole entry): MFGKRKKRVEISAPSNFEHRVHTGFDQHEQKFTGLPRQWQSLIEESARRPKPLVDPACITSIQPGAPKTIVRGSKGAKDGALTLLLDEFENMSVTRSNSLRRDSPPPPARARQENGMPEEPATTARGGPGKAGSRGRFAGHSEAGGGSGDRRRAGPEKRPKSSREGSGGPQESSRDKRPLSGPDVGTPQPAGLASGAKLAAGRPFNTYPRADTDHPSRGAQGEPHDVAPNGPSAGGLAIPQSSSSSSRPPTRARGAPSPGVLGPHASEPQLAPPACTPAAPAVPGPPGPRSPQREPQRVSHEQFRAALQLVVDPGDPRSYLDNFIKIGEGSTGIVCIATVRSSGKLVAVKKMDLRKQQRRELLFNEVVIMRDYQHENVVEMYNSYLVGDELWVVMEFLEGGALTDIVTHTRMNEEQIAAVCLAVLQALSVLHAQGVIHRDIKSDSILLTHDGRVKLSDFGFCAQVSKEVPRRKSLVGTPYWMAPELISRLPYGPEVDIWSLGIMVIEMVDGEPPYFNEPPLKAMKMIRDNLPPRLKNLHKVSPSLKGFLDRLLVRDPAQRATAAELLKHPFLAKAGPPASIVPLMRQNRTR

[6] = target: T9, endogenous kinases and other proteins enriched by Kinobeads from mixed lysates of K-562, COLO-205, MV-4-11, SK-N-BE(2) and OVCAR-8 (Homo sapiens, UniProt O43353); assay: Kinobeads competition binding profiling, two doses (100 nM and 1 µM); conditions: target RIPK2; read-out: apparent Kd;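 further: inhibitor preincubated 45 min at 4 °C in cell lysate, then bead pulldown. Bound protein quantified by label-free mass spectrometry relative to DMSO vehicle control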
T9 construct: to maximize the representation of endogenous proteins; endogenous in cells

PKN3 = PKN3 (Homo sapiens, UniProt Q6P5Z2); design: full-length PKN3, CSNK2A1 or CSNK2A2 ORF; host or cells: HEK293T; conditions: reported for the most potent 4-anilinoquin(az)oline; cited from earlier work
GRK6 = target: T10, GRK6 (Homo sapiens, UniProt P43250); assay: Kinobeads two-dose competition binding: GRK6; conditions: Kinobeads two-dose, Drugmatrix - all 2; read-out: apparent Kd GRK6
T10 construct: endogenous in cells
T10 sequence (P43250 whole entry): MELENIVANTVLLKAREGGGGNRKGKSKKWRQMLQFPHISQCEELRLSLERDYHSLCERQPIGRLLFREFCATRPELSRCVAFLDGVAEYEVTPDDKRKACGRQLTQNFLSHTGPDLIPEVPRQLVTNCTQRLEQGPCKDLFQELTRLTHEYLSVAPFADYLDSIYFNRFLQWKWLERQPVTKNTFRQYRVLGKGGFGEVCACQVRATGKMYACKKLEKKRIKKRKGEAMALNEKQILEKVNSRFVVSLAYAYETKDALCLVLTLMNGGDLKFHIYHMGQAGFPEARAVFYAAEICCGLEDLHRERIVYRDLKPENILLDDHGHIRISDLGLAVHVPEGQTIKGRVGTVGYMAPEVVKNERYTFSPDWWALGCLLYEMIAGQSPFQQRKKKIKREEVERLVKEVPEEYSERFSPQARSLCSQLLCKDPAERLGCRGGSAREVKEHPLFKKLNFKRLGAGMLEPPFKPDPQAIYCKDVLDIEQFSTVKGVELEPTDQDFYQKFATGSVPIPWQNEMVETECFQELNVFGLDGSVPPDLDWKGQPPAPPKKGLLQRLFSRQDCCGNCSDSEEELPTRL

FLT3 = assay: Kinobeads two-dose competition binding: FLT3; design: species or system human
[7] = test system: endogenous kinases and other proteins enriched by Kinobeads from mixed lysates of K-562, COLO-205, MV-4-11, SK-N-BE(2) and OVCAR-8; assay: Kinobeads competition binding profiling, two doses (100 nM and 1 µM); design: species or system human; conditions: in words;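 further: inhibitor preincubated 45 min at 4 °C in cell lysate, then bead pulldown. Bound protein quantified by label-free mass spectrometry relative to DMSO vehicle control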
ABL2 [8] = target: T3, ABL2; assay: Kinobeads two-dose competition binding: ABL2; conditions: sheet "Kinobeads Drugmatrix - all"; unit inferred; read-out: Kinobeads Drugmatrix - all: apparent Kd, ABL2
ABL1 [9] = target: T1, ABL1; assay: Kinobeads two-dose competition binding: ABL1; conditions: sheet "Kinobeads Drugmatrix - all"; unit inferred; read-out: Kinobeads Drugmatrix - all: apparent Kd, ABL1
[10] = EC50 with Correction, read-out: apparent Kd

T1 sequence (P00519 28-1130 limits assumed): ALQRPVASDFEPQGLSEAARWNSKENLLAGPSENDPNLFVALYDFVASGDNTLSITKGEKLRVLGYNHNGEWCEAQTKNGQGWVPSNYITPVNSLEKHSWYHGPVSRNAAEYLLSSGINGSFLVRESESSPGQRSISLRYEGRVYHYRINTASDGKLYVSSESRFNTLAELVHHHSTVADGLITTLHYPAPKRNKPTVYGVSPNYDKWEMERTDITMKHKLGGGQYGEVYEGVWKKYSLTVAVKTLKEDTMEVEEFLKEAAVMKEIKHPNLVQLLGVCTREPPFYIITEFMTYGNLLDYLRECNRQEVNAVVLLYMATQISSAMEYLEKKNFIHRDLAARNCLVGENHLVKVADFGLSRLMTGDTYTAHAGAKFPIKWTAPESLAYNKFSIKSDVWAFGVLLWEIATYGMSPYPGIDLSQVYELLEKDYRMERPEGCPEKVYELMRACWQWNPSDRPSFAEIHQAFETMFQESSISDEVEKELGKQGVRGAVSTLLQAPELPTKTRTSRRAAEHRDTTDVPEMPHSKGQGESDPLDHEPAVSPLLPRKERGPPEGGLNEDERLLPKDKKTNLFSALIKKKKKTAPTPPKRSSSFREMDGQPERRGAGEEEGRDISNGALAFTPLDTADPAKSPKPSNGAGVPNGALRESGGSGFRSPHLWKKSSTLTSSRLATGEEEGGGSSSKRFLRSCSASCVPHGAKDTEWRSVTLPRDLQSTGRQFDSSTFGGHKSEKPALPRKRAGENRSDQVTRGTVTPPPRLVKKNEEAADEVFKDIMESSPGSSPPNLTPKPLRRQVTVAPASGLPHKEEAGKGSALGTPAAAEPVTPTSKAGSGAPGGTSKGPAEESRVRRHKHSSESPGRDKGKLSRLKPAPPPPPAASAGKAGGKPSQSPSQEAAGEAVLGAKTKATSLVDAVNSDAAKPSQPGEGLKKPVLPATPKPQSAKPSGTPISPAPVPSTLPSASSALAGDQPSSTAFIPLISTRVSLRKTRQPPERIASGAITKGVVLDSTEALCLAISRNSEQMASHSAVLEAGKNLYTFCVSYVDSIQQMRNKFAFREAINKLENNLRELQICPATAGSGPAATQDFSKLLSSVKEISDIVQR

SMILES	CATDS (ABL1 [1])	CATDS (ACOX1)	CATDS (ABL2 [2])	CATDS (ACAD11 [3])	CATDS (AAK1)	further results
CCn1cc(-c2ccnc3[nH]c(-c4cccc(CN(C)C)c4)cc23)c(-c2ccc(NC(=O)N(C)C)cc2)n1 [GSK1070916]	0	0	0	0	0	potency estimated from few doses (ABCD3): > 1 µM
O=c1[nH]ccc2nc(N[C@@H]3CCNC3)nc(Nc3ccc4c(c3)S(=O)(=O)CC4)c12 [GSK2181306A]	0	0	0	0.02228	0.01021	potency estimated from few doses (AAK1): 0.8 µM; potency estimated from few doses (ACAD11 [4]): 0.145 µM
Cc1cccc(Nc2nc(N[C@H]3CCCC[C@H]3N)ncc2C(N)=O)c1 [GSK986310C]						IL-10 levels [5]: dose-dependent reduction; Kd (PRKCA; [10]): 272 nM; EC50 (PRKCA; eight-dose curve fit): 446 nM; Kd (PAK4; [10]): 65.9 nM; EC50 (PAK4; eight-dose curve fit): 135 nM
COc1ccc(Nc2nccc(N3CCC(NC(=O)Nc4ccc5c(c4)OCO5)C3)n2)cc1 (centres unmarked) [GSK1379745A]	0	0	0	0	0	potency estimated from few doses (ABCD3): > 1 µM
CNC(=O)c1cncc(/C=C/c2c(Cl)cccc2Cl)c1 [GW445014X]						potency estimated from few doses [6]: 0.773 µM
COc1cc(Nc2ccnc3cc(I)ccc23)cc(OC)c1OC [UNC-CA94]						in-cell target engagement PKN3 (PKN3): 1.3 µM
c1ccc(-c2cnc3nccnn23)cc1 [AH20685XX]						potency estimated from few doses (GRK6): > 1 µM
CCc1nc(-c2cccc(N(C)S(=O)(=O)c3ccccc3)c2)c(-c2ccnc(Nc3ccc(N4CCN(C(C)=O)CC4)nc3)n2)s1 [GSK1645895A]	0	0	0	0	0	potency estimated from few doses (ABCD3): > 1 µM
Cc1cc(-c2ccnc(Nc3cccc(C#N)c3)n2)cc(C)c1O [GSK1440913A]	0	0	0	0.1181	0.2295	potency estimated from few doses (AAK1): 0.12 µM; potency estimated from few doses (ACAD11 [4]): 0.425 µM
O=C1Nc2ccc(F)cc2/C1=C/c1ccc[nH]1 [RO0272148-000]						potency estimated from few doses (ACOX1; Kinobeads two-dose, mixed cell lysate, read-out: Kdapp ACOX1): > 1 µM; potency estimated from few doses (FLT3; Kinobeads two-dose (100 nM and 1 µM), mixed cell lysate, read-out: Kdapp FLT3): 0.099 µM; CATDSFLT3 (FLT3; selectivity score from Kinobeads two-dose data): 0.87
NCC(C(=O)Nc1cc(Br)c(-c2ccnc3[nH]ccc23)s1)c1ccccc1 (centres unmarked) [GSK1269851A]	0	0	0.01467	0	0.03418	selectivity in the Kinobeads assay (CATDSmost potent) [7]: unselective; potency estimated from few doses (ABL2 [8]): 0.433 µM; potency estimated from few doses (ABL1 [9]): > 1 µM; potency estimated from few doses (AAK1): 0.0844 µM; potency estimated from few doses (ACAD11 [4]): > 1 µM
